Experimental data from patent publication US8501940B2, “Tetrahydrocinnoline derivatives” (Hoffmann-La Roche Inc., priority 2008, dated 2013).

Legend:
men = conditions: treatment with carbenoxolone in men; cited from earlier work
human 11beta-HSD1 = target: T1, human 11beta-HSD1 (Homo sapiens, UniProt P28845); assay: Microsome assay (cortisone to cortisol conversion, ELISA detection); format: biochemical; conditions: microsomes from HEK293 cells transiently expressing human 11beta-HSD1; Cortisone 50-200 nM, NADPH 1 mM; 60 min at 37° C.; cortisol by ELISA; read-out: h 11-beta-HSD 1 IC50
T1 construct: made in house; host or cells: HEK293 cells (ATCC CRL-1573), transient transfection with a pcDNA3 construct; microsomal fraction used
T1 sequence (P28845 whole entry): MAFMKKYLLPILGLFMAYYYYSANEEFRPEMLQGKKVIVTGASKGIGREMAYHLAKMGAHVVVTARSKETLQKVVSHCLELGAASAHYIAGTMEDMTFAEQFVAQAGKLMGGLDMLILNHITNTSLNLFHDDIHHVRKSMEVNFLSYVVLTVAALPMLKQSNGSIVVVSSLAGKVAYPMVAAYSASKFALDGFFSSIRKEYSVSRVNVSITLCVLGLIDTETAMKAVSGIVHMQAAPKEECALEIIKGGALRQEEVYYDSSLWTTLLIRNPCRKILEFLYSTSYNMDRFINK
Protocol: The cDNA encoding the human 11beta-HSD1 protein was cloned into the expression vector pcDNA3 (Stratagene). This construct (for details see Alex Odermatt et al.; J Biol Chem., 1999, Vol. 274, Issue 40, 28762-28770) was used to transiently express the protein in HEK293 cells (ATCC number: CRL-1573, described in Graham, F. L., Smiley, J., Russell, W. C., Nairn, R.; (1977)) using lipofectamine. 48 h after transfection cells were washed twice with ice-cold PBS (Phosphate buffered Saline). To 1 volume of cell suspension in PBS 2 volumes of ice-cold lysis buffer (50 mM Tris; pH7.5; 1 mM EDTA; 100 mM NaCl) were added. The cells were lysed by Potter-homogenization (20 strokes). The resulting homogenate was sonicated with a tip sonicator (10% output; 2×30 sec.) and cleared by a low speed centrifugation (10 min×9000 g; 4° C.). The microsomal fraction was collected by a high speed centrifugation (60 min×110,000 g). The resulting pellet was resuspended in storage buffer (20 mM Tris pH 7.5; 1 mM EDTA; 10% Glycerol) and the centrifugation was repeated. The resulting pellet containing the microsomal fraction was again taken up into storage buffer and aliquots were kept frozen in liquid Nitrogen until use.
Microsomes isolated from HEK293 cells transiently expressing human 11beta-HSD1 (for details see above) were incubated in assay buffer (100 mM NaCl; 1 mM EDTA; 1 mM EGTA; 1 mM MgCl; 250 mM Sucrose; 20 mM Tris pH 7.4; Cortisone 50-200 nM and NADPH 1 mM) together with different concentrations of test substances. After 60 min. of incubation at 37° C. the assay was stopped by heating to 80° C. (5 min.) and by addition of the inhibitor Carbenoxolone (1 uM). The amount of Cortisol produced in this assay was determined using a commercially available, ELISA-based Cortisol-detection kit (Distributed by Assay Design, Inc.). Inhibitors were characterized by there IC50 values, e.g. the concentration at which the production of cortisol was 50% reduced.

## CC1(C)[C@@H](OC(=O)CCC(=O)O)CC[C@]2(C)[C@H]3C(=O)C=C4[C@@H]5C[C@@](C)(C(=O)O)CC[C@]5(C)CC[C@@]4(C)[C@]3(C)CC[C@@H]12 [carbenoxolone]
men
  insulin sensitivity: increase in insulin sensitivity

## Fc1ccc(-c2cc3c(nn2)C2CCC3C23CC3)c(C(F)(F)F)c1 (stereo not drawn) [Example 19, (5′RS,8′SR)-3′-[4-fluoro-2-(trifluoromethyl)phenyl]-5′,6′,7′,8′-tetrahydrospiro[cyclopropane-1,9′-[1′,2′]diaza[5′,8′]methanocinnoline]]
Human 11beta-HSD1
  IC50: 0.002 nM

## c1c(C2CC2)nnc2c1C1CCC2C12CCCC2 (stereo not drawn) [Example 15, (5′RS,8′SR)-3′-cyclopropyl-5′,6′,7′,8′-tetrahydrospiro[cyclopentane-1,9′-[1′,2′]diaza[5′,8′]methanocinnoline]]
Human 11beta-HSD1
  IC50: 0.013 nM

## c1c(C2CC2)nnc2c1[C@H]1CC[C@@H]2C12CC2 [Example 5b, (5′S,8′R)-3′-cyclopropyl-5′,6′,7′,8′-tetrahydrospiro[cyclopropane-1,9′-[1′,2′]diaza[5′,8′]methanocinnoline]]
Human 11beta-HSD1
  IC50: 0.382 nM

## Cc1c(-c2cc3c(nn2)C2CCC3C23CC3)cnn1C(C)(C)C (stereo not drawn) [Example 23, (5′RS,8′SR)-3′-(1-tert-butyl-5-methyl-1H-pyrazol-4-yl)-5′,6′,7′,8′-tetrahydrospiro[cyclopropane-1,9′-[1′,2′]diaza[5′,8′]methanocinnoline]]
Human 11beta-HSD1
  IC50: 0.095 nM

## Cc1c(C2CC2)nnc2c1C1CCC2C12CC2 (stereo not drawn) [Example 6, (5′RS,8′SR)-3′-cyclopropyl-4′-methyl-5′,6′,7′,8′-tetrahydrospiro[cyclopropane-1,9′-[1′,2′]diaza[5′,8′]methanocinnoline]]
Human 11beta-HSD1
  IC50: 0.035 nM

## CC(C)(C)c1cc2c(nn1)C1CCC2C12CC2 (stereo not drawn) [Example 2, (5′RS,8′SR)-3′-tert-butyl-5′,6′,7′,8′-tetrahydrospiro[cyclopropane-1,9′-[1′,2′]diaza[5′,8′]methanocinnoline]]
Human 11beta-HSD1
  IC50: 0.02 nM
